The values that follow come from ChEMBL document CHEMBL1697821, “Development of a phospholipidosis database and predictive quantitative structure-activity relationship (QSAR) models” (Toxicol Mech Methods, 2008).

For this series, the system named is Phospholipidosis. The series is described as follows: Literature-mined public compounds from Kruhlak et al phospholipidosis modelling dataset.

On to `CN[C@@H]1[C@@H](O)[C@@H](O[C@@H]2[C@@H](O)[C@H](O[C@H]3O[C@H](C(C)N)CC[C@H]3N)[C@@H](N)C[C@H]2N)OC[C@]1(C)O` (stereo not given in full) [GENTAMICIN C2], for which the Phospholipidosis result is “Positive: strong inducer confirmed by electron microscopy”.
For `Cc1ccc(S(=O)(=O)NC(=O)NN2CC3CCCC3C2)cc1` (stereo not given) [GLICLAZIDE], the Phospholipidosis result was “Negative: based on the absence of positive reported data from WMDD”.
The entry for `OCC(O)CO` [GLYCERIN] is “Negative: based on the absence of positive reported data from WMDD”.
As for `NCC(=O)O` [GLYCINE], the Phospholipidosis entry is recorded as “Negative: based on the absence of positive reported data from WMDD”.
For `COCCOc1cnc(NS(=O)(=O)c2ccccc2)nc1` [GLYMIDINE], the Phospholipidosis result is given as “Negative: based on the absence of positive reported data from WMDD”.
As for `COC1=CC(=O)C[C@@H](C)[C@]12Oc1c(Cl)c(OC)cc(OC)c1C2=O` [GRISEOFULVIN], the Phospholipidosis result was “Negative: based on the absence of positive reported data from WMDD”.
As for `CCC(C)(C)N/C(N)=N/C#N` [GUANCYDINE], the Phospholipidosis entry was “Negative: based on the absence of positive reported data from WMDD”.
On to `N=C(N)NCCN1CCCCCCC1` [GUANETHIDINE], for which the Phospholipidosis result is given as “Negative: based on the absence of positive reported data from WMDD”.
Turning to `O=C1CN=C(c2ccccc2)c2cc(Cl)ccc2N1CC(F)(F)F` [HALAZEPAM], the Phospholipidosis result is “Negative: based on the absence of positive reported data from WMDD”.
Consider `CCCCN(CCCC)CCC(O)c1cc2c(Cl)cc(Cl)cc2c2cc(C(F)(F)F)ccc12` (stereo not given) [HALOFANTRINE], for which the Phospholipidosis entry was “Negative: based on the absence of positive reported data from WMDD”.
Regarding `O=C(CCCN1CCC(O)(c2ccc(Cl)cc2)CC1)c1ccc(F)cc1` [HALOPERIDOL], the Phospholipidosis result is recorded as “Positive: strong inducer confirmed by electron microscopy”.
In the case of `CC1(C)S[C@@H]2[C@H](N3C(=O)[C@@H](c4ccccc4)NC3(C)C)C(=O)N2[C@H]1C(=O)O` [HETACILLIN], the Phospholipidosis entry is listed as “Negative: based on the absence of positive reported data from WMDD”.
Regarding `C[N+]1(C)CCN(CC(O)(c2ccccc2)C2CCCCC2)CC1` (stereo not given) [HEXOCYCLIUM], the Phospholipidosis entry is “Negative: based on the absence of positive reported data from WMDD”.
For `CCCCCCc1ccc(O)cc1O` [HEXYLRESORCINOL], the Phospholipidosis result was “Negative: based on the absence of positive reported data from WMDD”.
On to `NCCc1c[nH]cn1` [HISTAMINE], for which the Phospholipidosis result is “Negative: based on the absence of positive reported data from WMDD”.
With `C[N+]1(C)[C@@H]2CC[C@H]1C[C@@H](OC(=O)C(O)c1ccccc1)C2.[Br-]` (stereo not given in full) [HOMATROPINE METHYLBROMIDE], the Phospholipidosis result is reported as “Negative: based on the absence of positive reported data from WMDD”.
Then `CN1CCCN(C(c2ccccc2)c2ccc(Cl)cc2)CC1` (stereo not given) [HOMOCHLORCYCLIZINE], with “Positive: strong inducer confirmed by electron microscopy”.
For the compound `NNc1nncc2ccccc12` [HYDRALAZINE], the Phospholipidosis result is given as “Negative: based on the absence of positive reported data from WMDD”.
Turning to `NS(=O)(=O)c1cc2c(cc1C(F)(F)F)NCNS2(=O)=O` [HYDROFLUMETHIAZIDE], the Phospholipidosis entry is on record as “Negative: based on the absence of positive reported data from WMDD”.
In the case of `N=C(N)c1ccc(/C=C/c2ccc(C(=N)N)cc2O)cc1` [HYDROXYSTILBAMIDINE], the Phospholipidosis result is “Negative: based on the absence of positive reported data from WMDD”.
Take `OCCOCCN1CCN(C(c2ccccc2)c2ccc(Cl)cc2)CC1` (stereo not given) [HYDROXYZINE]: the Phospholipidosis entry is given as “Positive: strong inducer confirmed by electron microscopy”.
Then `CC(=O)[C@]1(O)Cc2c(O)c3c(c(O)c2[C@@H](O[C@H]2C[C@H](N)[C@H](O)[C@H](C)O2)C1)C(=O)c1ccccc1C3=O` [IDARUBICIN], with “Negative: based on the absence of positive reported data from WMDD”; and `CN(C)CCCN1c2ccccc2CCc2ccccc21` [IMIPRAMINE], with “Positive: strong inducer confirmed by electron microscopy”.
Take `Nc1cc(-c2ccncc2)c[nH]c1=O` [INAMRINONE]: the Phospholipidosis entry is listed as “Negative: based on the absence of positive reported data from WMDD”.
With `CC1(C)C(/C=C/C=C/C=C/C=C2/N(CCCCS(=O)(=O)[O-])c3ccc4ccccc4c3C2(C)C)=[N+](CCCCS(=O)(=O)[O-])c2ccc3ccccc3c21.[Na+]` [INDOCYANINE GREEN], the Phospholipidosis result was “Negative: based on the absence of positive reported data from WMDD”.
`O=C(NC1CCN(CCc2c[nH]c3ccccc23)CC1)c1ccccc1` [INDORAMIN]: the Phospholipidosis result was “Positive: strong inducer confirmed by electron microscopy”.
Turning to `O[C@H]1[C@H](O)[C@@H](O)[C@H](O)[C@@H](O)[C@H]1O` [INOSITOL], the Phospholipidosis result was “Negative: based on the absence of positive reported data from WMDD”.
With `CC(=O)NCc1c(I)c(NC(C)=O)c(I)c(C(=O)O)c1I` [IODAMIDE], the Phospholipidosis entry is recorded as “Negative: based on the absence of positive reported data from WMDD”.
For the compound `O=C(CCCCC(=O)Nc1c(I)cc(I)c(C(=O)O)c1I)Nc1c(I)cc(I)c(C(=O)O)c1I` [IODIPAMIDE], the Phospholipidosis entry was “Negative: based on the absence of positive reported data from WMDD”.
Regarding `O=c1[nH]c(=S)[nH]cc1I` [IODOTHIOURACIL], the Phospholipidosis result is reported as “Negative: based on the absence of positive reported data from WMDD”.
Take `CNC(=O)c1c(I)c(NC(C)=O)c(I)c(C(=O)O)c1I` [IOTHALAMIC ACID]: the Phospholipidosis result is reported as “Negative: based on the absence of positive reported data from WMDD”.
With `CN(C)/C=N/c1c(I)cc(I)c(CCC(=O)O)c1I` [IPODATE], the Phospholipidosis result is reported as “Negative: based on the absence of positive reported data from WMDD”.
Regarding `CN(C)CCCn1c2c(c3ccccc31)CCCCCC2` [IPRINDOLE], the Phospholipidosis entry was “Positive: strong inducer confirmed by electron microscopy”.
As to `CNC(C)CCC=C(C)C` (stereo not given) [ISOMETHEPTENE], the Phospholipidosis result is “Negative: based on the absence of positive reported data from WMDD”.
Regarding `NNC(=O)c1ccncc1` [ISONIAZID], the Phospholipidosis result is reported as “Negative: based on the absence of positive reported data from WMDD”.
As for `CC(C)[N+](C)(CCC(C(N)=O)(c1ccccc1)c1ccccc1)C(C)C` [ISOPROPAMIDE], the Phospholipidosis entry is reported as “Negative: based on the absence of positive reported data from WMDD”.
For the compound `O=[N+]([O-])O[C@@H]1CO[C@H]2[C@@H]1OC[C@@H]2O` [ISOSORBIDE MONONITRATE], the Phospholipidosis entry is recorded as “Negative: based on the absence of positive reported data from WMDD”.
Take `CC(COc1ccccc1)NC(C)C(O)c1ccc(O)cc1` (stereo not given) [ISOXSUPRINE]: the Phospholipidosis result is reported as “Negative: based on the absence of positive reported data from WMDD”.
As for `NC[C@H]1O[C@H](O[C@H]2[C@H](O)[C@@H](O[C@H]3O[C@H](CO)[C@@H](O)[C@H](N)[C@H]3O)[C@H](N)C[C@@H]2N)[C@H](O)[C@@H](O)[C@@H]1O` [KANAMYCIN A], the Phospholipidosis entry is “Negative: based on the absence of positive reported data from WMDD”.
As for `CC(=O)N1CCN(c2ccc(OCC3COC(Cn4ccnc4)(c4ccc(Cl)cc4Cl)O3)cc2)CC1` (stereo not given) [KETOCONAZOLE], the Phospholipidosis result was “Positive: weak inducer based on presence of foamy macrophages and cytoplasmic vacuolations”.
Take `CN1CCC(=C2c3ccccc3CC(=O)c3sccc32)CC1` [KETOTIFEN]: the Phospholipidosis entry is “Negative: based on the absence of positive reported data from WMDD”.
`CC(CCc1ccccc1)NCC(O)c1ccc(O)c(C(N)=O)c1` (stereo not given) [LABETALOL]: the Phospholipidosis result was “Positive: weak inducer based on presence of foamy macrophages and cytoplasmic vacuolations”.
In the case of `CC(O)C(=O)O` (stereo not given) [LACTIC ACID], the Phospholipidosis result is “Negative: based on the absence of positive reported data from WMDD”.
As for `Nc1ccn([C@@H]2CS[C@H](CO)O2)c(=O)n1` [LAMIVUDINE], the Phospholipidosis entry is listed as “Negative: based on the absence of positive reported data from WMDD”.
Regarding `Cc1oncc1C(=O)Nc1ccc(C(F)(F)F)cc1` [LEFLUNOMIDE], the Phospholipidosis result is “Negative: based on the absence of positive reported data from WMDD”.
In the case of `CC(C)C[C@H](N)C(=O)O` [LEUCINE], the Phospholipidosis result is “Negative: based on the absence of positive reported data from WMDD”.
In the case of `c1ccc([C@H]2CN3CCSC3=N2)cc1` [LEVAMISOLE], the Phospholipidosis entry is reported as “Negative: based on the absence of positive reported data from WMDD”.
Regarding `C[N+](C)(C)C[C@H](O)CC(=O)[O-]` [LEVOCARNITINE], the Phospholipidosis entry is “Negative: based on the absence of positive reported data from WMDD”.
On to `C[C@H]1COc2c(N3CCN(C)CC3)c(F)cc3c(=O)c(C(=O)O)cn1c23.C[C@H]1COc2c(N3CCN(C)CC3)c(F)cc3c(=O)c(C(=O)O)cn1c23.O` [LEVOFLOXACIN], for which the Phospholipidosis entry is “Negative: confirmed by electron microscopy”.
Regarding `CC[C@H](OC(C)=O)C(C[C@H](C)N(C)C)(c1ccccc1)c1ccccc1` [LEVOMETHADYL ACETATE], the Phospholipidosis entry is on record as “Negative: based on the absence of positive reported data from WMDD”.
For `CCN(CC)CC(=O)Nc1c(C)cccc1C` [LIDOCAINE], the Phospholipidosis result is “Positive: weak inducer based on presence of foamy macrophages and cytoplasmic vacuolations”.
Consider `NC[C@@H]1O[C@H](O[C@H]2[C@@H](O)[C@H](O[C@@H]3[C@@H](O)[C@H](N)C[C@H](N)[C@H]3O[C@H]3O[C@H](CO)[C@@H](O)C[C@H]3N)O[C@@H]2CO)[C@H](N)[C@@H](O)[C@@H]1O[C@H]1O[C@H](CO)[C@@H](O)[C@H](O)[C@@H]1O` [LIVIDOMYCIN], for which the Phospholipidosis result is recorded as “Negative: based on the absence of positive reported data from WMDD”.
Take `CN1[C@@H](CC(=O)c2ccccc2)CCC[C@H]1C[C@H](O)c1ccccc1` [LOBELINE]: the Phospholipidosis entry is given as “Negative: based on the absence of positive reported data from WMDD”.
Then `CCOC(=O)N1CCC(=C2c3ccc(Cl)cc3CCc3cccnc32)CC1` [LORATADINE], with “Positive: weak inducer based on presence of foamy macrophages and cytoplasmic vacuolations”.
`O=C1Nc2ccc(Cl)cc2C(c2ccccc2Cl)=NC1O` (stereo not given) [LORAZEPAM]: the Phospholipidosis result was “Negative: based on the absence of positive reported data from WMDD”.
